According to US11555010B2, “Diamide antimicrobial agents” (BROWN UNIVERSITY, priority 2019, dated 2023):
In brackets after ≈: the same amount, converted by molar mass.

Assays:
E. coli [1] = conditions: cited from earlier work
B. subtilis = assay: Resazurin antimicrobial MIC assay; format: cell-based; conditions: Bacillus subtilis, read-out: Apparent MIC Value
Description: Bacillus subtilis ATCC 11775 was plated on agar from a 20% glycerol stock solution stored at −80′° C. Inoculated plates were then incubated at 37° C. under aerobic conditions for 16 hours. Single cultures were transferred to Nutrient Broth (NB) and cultured for 16 hours under the same conditions. […] The assay is performed in LB broth. […] Compounds are tested […] for their capacity to inhibit B. subtilis growth. In order to determine growth inhibition, a resazurin whole-cell assay was used (Kuhn, et al., 2014, Medchemcomm 5:1213-1217). Briefly, second-passage bacteria are incubated with inhibitor in a 96-well plate for four hours, then resazurin dye is added and color/fluorescence change is observed. The resazurin is naturally a blue color, but with reductive species produced during bacterial growth, it is reduced to resorufin, which appears pink. Resorufin is also fluorescent and can be measured by a plate-reader. The disclosures of each and every patent, patent application, and publication cited herein are hereby incorporated herein by reference in their entirety.

E. Coli [2] = assay: Resazurin antimicrobial MIC assay; conditions: Escherichia coli, read-out: Apparent MIC Value

MIC (B. subtilis)	Compound	further results
–	CC1=N[C@@H]2[C@@H](O)[C@H](O)[C@@H](CO)O[C@@H]2S1 [NAG-thiazoline]	effect on the viability of E. coli (E. coli [1]): no effect
5 µM (≈ 2.56 µg/mL)	CC(N)C(C(=O)NC1CCCCC1)N(C(=O)c1ccccc1I)C1CCCCC1 (stereo not shown) [Example 2]	–
–	O=C(NC1CCCCC1)C(C1CCNCC1)N(C(=O)c1ccccc1I)C1CCCCC1 (stereo not shown) [Example 6, N-cyclohexyl-N-(2-(cyclohexylamino)-2-oxo-1-(piperidin-4-yl)ethyl)-2-iodobenzamide]	MIC (E. Coli [2]): 5 µM (≈ 2.76 µg/mL)
5 µM (≈ 2.49 µg/mL)	NCC(C(=O)NC1CCCCC1)N(C(=O)c1ccccc1I)C1CCCCC1 (stereo not shown) [Example 3, N-(3-amino-1-(cyclohexylamino)-1-oxopropan-2-yl)-N-cyclohexyl-2-iodobenzamide]	–
